According to ChEMBL document CHEMBL5346914, “Optimization of carbazole carboxamide RORγt agonists: Challenges in improving the metabolic stability and maintaining the agonistic activity” (Eur J Med Chem, 2023):
pEC50, pIC50: −log10 of the molar value.

Columns and labels:
[1] = Microsomal stability in mouse liver microsome assessed as half life at 1 uM preincubated for 10 mins followed by NADPH addition measured upto 60 mins by HPLC-MS/MS analysis; type: ADME; settings: liver microsomes, time < 70 min
[2] = molecular target: T1, Nuclear receptor ROR-gamma (Homo sapiens, UniProt P51449); test: Agonist activity at human RORgammat LBD (265 to 507 residues) expressed in Escherichia coli BL21(DE3) cells incubated for 1 hr FRET assay
T1 sequence (P51449 whole entry): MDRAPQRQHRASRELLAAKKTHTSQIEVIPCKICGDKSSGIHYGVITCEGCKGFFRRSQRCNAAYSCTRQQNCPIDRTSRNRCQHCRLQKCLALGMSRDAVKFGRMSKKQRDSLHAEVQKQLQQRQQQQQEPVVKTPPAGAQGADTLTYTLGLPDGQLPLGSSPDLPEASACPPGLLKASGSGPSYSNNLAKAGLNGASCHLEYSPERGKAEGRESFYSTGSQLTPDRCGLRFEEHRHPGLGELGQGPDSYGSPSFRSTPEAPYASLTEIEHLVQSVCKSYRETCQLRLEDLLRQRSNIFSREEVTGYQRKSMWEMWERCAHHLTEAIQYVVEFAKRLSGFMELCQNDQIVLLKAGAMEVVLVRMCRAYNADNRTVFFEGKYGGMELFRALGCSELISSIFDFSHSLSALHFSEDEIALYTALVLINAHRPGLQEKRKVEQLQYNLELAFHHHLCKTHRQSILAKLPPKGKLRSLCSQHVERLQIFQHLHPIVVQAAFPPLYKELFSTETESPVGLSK

[3] = molecular target: T1, Nuclear receptor ROR-gamma; test: Agonist activity at Gal4-fused human RORgammat LBD expressed in HEK293T cells assessed as luciferase activity incubated for 16 to 20 hrs by luciferase reporter gene assay; type: cell-based
[4] = molecular target: T1, Nuclear receptor ROR-gamma; test: Inverse agonist activity at human RORgammat LBD (265 to 507 residues) expressed in Escherichia coli BL21(DE3) cells incubated for 1 hr FRET assay

| Structure (SMILES) | half-life at 1 µM [1] [min] | pEC50 [2] | also measured |
| --- | --- | --- | --- |
| CCn1c2ccc(CC3CC3)cc2c2cc(C(=O)N[C@H](COC)c3ccc(S(=O)(=O)CC)cc3)ccc21 | 40.8 | – | – |
| CCn1c2ccc(CC(C)C)cc2c2cc(C(=O)NCc3ccc(S(=O)(=O)CC)cc3)ccc21 | 26.9 | 7.96 | – |
| CCn1c2ccc(C(=O)NCc3ccc(S(=O)(=O)CC)cc3)cc2c2c(OC(C)C)cccc21 | – | 7.53 | – |
| CCn1c2ccc(OC(C)C)cc2c2cc(C(=O)NCc3ccc(S(C)(=O)=O)cc3)ccc21 | 14.8 | 7.92 | – |
| CCn1c2ccc(CC(C)(C)F)cc2c2cc(C(=O)NCc3ccc(S(=O)(=O)CC)cc3)ccc21 | 20.8 | 7.99 | – |
| CCn1c2ccc(OC3CCC3)cc2c2cc(C(=O)NCc3ccc(S(=O)(=O)CC)cc3)ccc21 | 16.4 | – | – |
| CCn1c2ccc(CC(C)C(F)(F)F)cc2c2cc(C(=O)NCc3ccc(S(=O)(=O)CC)cc3)ccc21 (stereo unspecified) | 26.2 | – | – |
| CCn1c2ccc(OC(C)C)cc2c2cc(C(=O)NCc3ccc(S(=O)(=O)CC)cc3)ccc21 | 8.7 | – | – |
| CCn1c2ccc(CC3COC3)cc2c2cc(C(=O)NCc3ccc(S(=O)(=O)CC)cc3)ccc21 | – | – | pIC50 [4]: 5.18 |
| CCn1c2ccc(CN(C)C)cc2c2cc(C(=O)NCc3ccc(S(=O)(=O)CC)cc3)ccc21 | – | 6.74 | – |
| CCn1c2ccc(CC3CC3)cc2c2cc(C(=O)N[C@@H](COC)c3ccc(S(=O)(=O)CC)cc3)ccc21 | > 154 | – | – |
| CCS(=O)(=O)c1ccc(CNC(=O)c2ccc3c(c2)c2cc(OC(C)C)ccc2n3CCF)cc1 | 14.1 | 8.11 | – |
| CCn1c2ccc(OC(C)C(F)(F)F)cc2c2cc(C(=O)NCc3ccc(S(=O)(=O)CC)cc3)ccc21 (stereo unspecified) | 19.9 | – | – |
| CCn1c2ccc(OCC(C)C)cc2c2cc(C(=O)NCc3ccc(S(=O)(=O)CC)cc3)ccc21 | 20.4 | – | – |
| CCn1c2ccc(OC3CC3)cc2c2cc(C(=O)NCc3ccc(S(=O)(=O)CC)cc3)ccc21 | 16.5 | – | – |
| CCn1c2ccc(OC(C)C)cc2c2cc(C(=O)NC(CO)c3ccc(S(=O)(=O)CC)cc3)ccc21 (racemic) | 17.9 | – | – |
| CCS(=O)(=O)c1ccc(C(COC)NC(=O)c2ccc3c(c2)c2cc(CC4CC4)ccc2n3CCF)cc1 (racemic) | 37.1 | 7.55 | pEC50 [3]: 6.46 |
| CCn1c2ccc(CC3CC3)cc2c2cc(C(=O)NC(COC)c3ccc(S(=O)(=O)CC)cc3)ccc21 (racemic) | > 145 | – | – |

Continued, in another order:

| half-life at 1 µM [1] [min] | pEC50 [2] | Structure (SMILES) | also measured |
| --- | --- | --- | --- |
| 48.8 | – | CCn1c2ccc(CC3CC3)cc2c2cc(C(=O)NCc3ccc(S(=O)(=O)CC)cc3)ccc21 | – |
| – | 7.90 | CCn1c2ccc(CC3CC3)cc2c2cc(C(=O)NCc3ccc(S(C)(=O)=O)cn3)ccc21 | – |
| 18.2 | 8.25 | CCn1c2ccc(OC(C)C)cc2c2cc(C(=O)NCc3ccc(S(=O)(=O)CC)cn3)ccc21 | – |
| 80.4 | 7.80 | CCS(=O)(=O)c1ccc(CNC(=O)c2ccc3c(c2)c2cc(CC4CC4)ccc2n3CCF)cc1 | pEC50 [3]: 6.61 |
| – | 8.01 | CCn1c2ccc(CC3CC3)cc2c2cc(C(=O)NCc3ccc(S(=O)(=O)CC)cn3)ccc21 | – |
| – | 7.90 | CCn1c2ccc(CC3CCC3)cc2c2cc(C(=O)NCc3ccc(S(=O)(=O)CC)cc3)ccc21 | – |
| 17 | – | CCn1c2ccc(OC(C)C)cc2c2cc(C(=O)NCc3ccc(S(C)(=O)=O)cn3)ccc21 | – |
| 41.4 | 7.83 | CCn1c2ccc(CC3CC3)cc2c2cc(C(=O)NC(CO)c3ccc(S(=O)(=O)CC)cc3)ccc21 (racemic) | – |
